From patent publication US8022205B2, “Pyrimidine derivatives as PI3K inhibitor and use thereof” (Chugai Seiyaku Kabushiki Kaisha, priority 2006, dated 2011)

Tests used:
[1] = tested on: human prostate cancer cell line PC3; assay: Cell proliferation inhibitory activity (Cell Counting Kit-8), prostate cancer PC3; assay type: cell-based; conditions: 96 h, PC3, 4 days
In short: (§1)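 PC3 (3000 cells/well) or NCI-H460 (1000 cells/well) exposed to compound for 4 days at 37 °C in CO2. CCK-8 absorbance at 450 nm (reference 615 nm); percent proliferation inhibition calculated at 2.5 µM.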

[2] = target: human PI3K(p110α/p85α) (Homo sapiens, UniProt P42336); assay: Measurement of PI3K inhibitory activity (AlphaScreen GST Detection Kit); assay type: biochemical; conditions: 10 μM ATP, 4 μM PI(4,5)P2, read-out: Enzyme inhibitory activity (IC50, μM) PI3K α
human PI3K(p110α/p85α), sequence (P42336 whole entry): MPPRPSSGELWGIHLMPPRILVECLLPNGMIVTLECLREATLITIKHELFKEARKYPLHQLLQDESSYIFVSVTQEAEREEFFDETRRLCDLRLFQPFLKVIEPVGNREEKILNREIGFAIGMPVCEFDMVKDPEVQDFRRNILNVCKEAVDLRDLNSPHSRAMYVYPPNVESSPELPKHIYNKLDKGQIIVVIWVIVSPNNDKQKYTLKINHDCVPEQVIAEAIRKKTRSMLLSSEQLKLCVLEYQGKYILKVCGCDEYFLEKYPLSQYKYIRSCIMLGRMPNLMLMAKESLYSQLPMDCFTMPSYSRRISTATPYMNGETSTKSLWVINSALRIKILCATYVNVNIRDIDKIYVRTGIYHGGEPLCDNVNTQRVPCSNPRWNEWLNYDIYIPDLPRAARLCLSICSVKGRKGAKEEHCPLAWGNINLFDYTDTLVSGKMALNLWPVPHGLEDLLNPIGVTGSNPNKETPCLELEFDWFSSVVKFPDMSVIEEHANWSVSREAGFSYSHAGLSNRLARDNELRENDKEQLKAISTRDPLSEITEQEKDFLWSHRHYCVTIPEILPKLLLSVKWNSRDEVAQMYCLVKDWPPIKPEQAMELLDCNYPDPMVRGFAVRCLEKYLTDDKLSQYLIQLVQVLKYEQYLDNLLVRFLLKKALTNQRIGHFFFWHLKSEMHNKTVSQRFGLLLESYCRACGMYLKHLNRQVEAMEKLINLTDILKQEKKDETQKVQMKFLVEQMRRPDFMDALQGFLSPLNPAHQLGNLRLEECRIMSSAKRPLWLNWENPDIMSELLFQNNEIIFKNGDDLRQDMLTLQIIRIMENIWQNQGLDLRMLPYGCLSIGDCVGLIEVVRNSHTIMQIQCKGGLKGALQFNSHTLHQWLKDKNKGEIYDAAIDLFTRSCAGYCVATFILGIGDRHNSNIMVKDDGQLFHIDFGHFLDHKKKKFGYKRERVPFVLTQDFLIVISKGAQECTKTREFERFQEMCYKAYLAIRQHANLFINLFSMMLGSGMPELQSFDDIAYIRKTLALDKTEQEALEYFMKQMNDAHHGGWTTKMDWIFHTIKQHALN
human PI3K(p110α/p85α), sequence (P27986 whole entry partner): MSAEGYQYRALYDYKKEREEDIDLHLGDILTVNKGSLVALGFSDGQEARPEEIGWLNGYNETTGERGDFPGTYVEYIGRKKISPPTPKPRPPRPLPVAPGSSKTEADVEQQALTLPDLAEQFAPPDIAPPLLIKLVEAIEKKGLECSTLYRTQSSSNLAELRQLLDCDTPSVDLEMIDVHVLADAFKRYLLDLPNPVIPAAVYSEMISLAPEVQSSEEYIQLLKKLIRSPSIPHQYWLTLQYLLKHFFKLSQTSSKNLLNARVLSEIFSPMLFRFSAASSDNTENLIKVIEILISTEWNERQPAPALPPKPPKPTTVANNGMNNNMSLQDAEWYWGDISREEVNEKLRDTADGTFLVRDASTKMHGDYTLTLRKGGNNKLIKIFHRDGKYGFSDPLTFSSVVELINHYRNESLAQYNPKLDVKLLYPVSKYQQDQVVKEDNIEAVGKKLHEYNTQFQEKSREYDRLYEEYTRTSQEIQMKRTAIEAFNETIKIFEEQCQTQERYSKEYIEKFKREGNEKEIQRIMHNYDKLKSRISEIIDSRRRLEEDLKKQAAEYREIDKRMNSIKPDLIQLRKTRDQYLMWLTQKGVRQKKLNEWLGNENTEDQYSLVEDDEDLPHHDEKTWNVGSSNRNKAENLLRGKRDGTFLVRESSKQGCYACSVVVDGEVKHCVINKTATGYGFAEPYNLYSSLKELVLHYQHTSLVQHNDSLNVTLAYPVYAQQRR
In short: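 Baculovirus-expressed human p110α/p85α was preincubated with compound for 20 min at room temperature, then reacted with 4 μM PI(4,5)P2 and 10 μM ATP (pH 7.5, 2.5 mM MgCl2) for 15 min at 37 °C. PIP3 product was detected by AlphaScreen competition of GST-GRP1 with biotin-PI(3,4,5)P3 after 1 h at room temperature.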

[3] = tested on: human colon cancer cell line HCT116; assay: Cell proliferation inhibitory activity (Cell Counting Kit-8), colon cancer HCT116; assay type: cell-based; conditions: HCT-116, 96 h, HCT116, 4 days
In short: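 HCT116 cells (2000/well) were exposed to compounds for 4 days at 37 °C under CO2. Viability was then read with CCK-8 as absorbance at 450 nm (reference 615 nm).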

[4] = tested on: human lung cancer cell line NCI-H460; assay: Cell proliferation inhibitory activity (Cell Counting Kit-8), lung cancer NCI-H460; assay type: cell-based; conditions: 96 h, NCI-H460, 4 days, read-out: Cell proliferation inhibitory activity (% Inhibition at 2.5 μM) Non-small cell lung cancer (NCI-H460)
In short: as §1

| Compound | IC50 [2] | inhibition at 2.5 µM [1] | inhibition at 2.5 µM [3] | inhibition at 2.5 µM [4] |
| --- | --- | --- | --- | --- |
| Nc1ncc(-c2nc(N3CCOCC3)nc3c2CCN3c2ccc(CNCc3cccnc3)cc2)cn1 [Example D-334] | 0.2 µM | 90% | 93% | 94% |
| CN(C)CCNC(=O)c1cccc(-c2nc(N3CCOCC3)nc3c2CCN3c2cccnc2)c1 [Example G-05, N-(2-dimethylaminoethyl)-3-(2-morpholin-4-yl-7-pyridin-3-yl-6,7-dihydro-5H-pyrrolo[2,3-d]pyrimidin-4-yl)-benzamide] | 0.36 µM | 49% | 38% | 55% |
| CN(C)CCOC(=O)c1cccc(-c2nc(N3CCOCC3)nc3c2CCN3c2cccnc2)c1 [Example G-27, 3-(2-Morpholin-4-yl-7-pyridin-3-yl-6,7-dihydro-5H-pyrrolo[2,3-d]pyrimidin-4-yl)-benzoic acid 2-dimethylamino-ethyl ester] | 0.33 µM | 48% | 44% | 18% |

Second part, led by results:

| IC50 [2] | Compound | inhibition at 2.5 µM [1] | inhibition at 2.5 µM [3] | inhibition at 2.5 µM [4] |
| --- | --- | --- | --- | --- |
| 0.02 µM | CN(C)CCCNc1cc(N2CCc3c(-c4cccc(O)c4)nc(N4CCOCC4)nc32)ccn1 [Example H-12, 3-{7-[2-(3-Dimethylamino-propylamino)-pyridin-4-yl]-2-morpholin-4-yl-6,7-dihydro-5H-pyrrolo[2,3-d]pyrimidin-4-yl}-phenol] | 76% | 82% | 71% |
| 0.018 µM | CN(C)CCOc1cc(N2CCc3c(-c4cnc(N)nc4)nc(N4CCOCC4)nc32)ccn1 [Example H-32, 5-[7-(2-Dimethylaminoethoxy-pyridin-4-yl)-2-morpholin-4-yl-6,7-dihydro-5H-pyrrolo[2,3-d]pyrimidin-4-yl]-pyrimidin-2-ylamine] | 89% | 82% | 86% |
| 0.011 µM | CCN1CCN(c2cc(N3CCc4c(-c5cnc(N)nc5)nc(N5CCOCC5)nc43)ccn2)CC1 [Example H-34, 5-{7-[2-(4-Ethyl-piperazin-1-yl)-pyridin-4-yl]-2-morpholin-4-yl-6,7-dihydro-5H-pyrrolo[2,3-d]pyrimidin-4-yl}-pyrimidin-2-ylamine] | 91% | 81% | 89% |
